Source: PubChem BioAssay (NCI)
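Where inhibition never reached the appropriate level, the endpoint shown equals the highest concentration tested. Otherwise, values were interpolated linearly from a five-concentration, 48-hour dose response in 96-well plates. GI50 = concentration required for 50% inhibition of growth. The concentration for full growth arrest is given as TGI.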

What was measured:
Test in all cases: growth of human tumour cells (NCI), 48 h; in the data active = GI50 below about 0.43 µM; inactive = the rest
786-0 renal = system: 786-0 renal
PC-3 prostate = system: PC-3 prostate
RXF 393 renal = system: RXF 393 renal
K-562 leukemia = system: K-562 leukemia
UO-31 renal = system: UO-31 renal
A498 renal = system: A498 renal
UACC-62 melanoma = system: UACC-62 melanoma
HOP-92 NSCLC = system: HOP-92 NSCLC
HCT-116 colon = system: HCT-116 colon
SN12C renal = system: SN12C renal
SK-OV-3 ovarian = system: SK-OV-3 ovarian
NCI-H226 lung = system: NCI-H226 lung
MDA-MB-231 breast = system: MDA-MB-231 breast
OVCAR-5 ovarian = system: OVCAR-5 ovarian
NCI/ADR-RES ovarian = system: NCI/ADR-RES ovarian
SF-539 CNS = system: SF-539 CNS
HOP-62 NSCLC = system: HOP-62 NSCLC
HCC-2998 colon = system: HCC-2998 colon
KM12 colon = system: KM12 colon
BT-549 breast = system: BT-549 breast
CAKI-1 renal = system: CAKI-1 renal
M14 melanoma = system: M14 melanoma
UACC-257 melanoma = system: UACC-257 melanoma
OVCAR-4 ovarian = system: OVCAR-4 ovarian
EKVX NSCLC = system: EKVX NSCLC
SNB-19 CNS = system: SNB-19 CNS
HS 578T breast = system: HS 578T breast

COc1cc(-c2nn(-c3ccc(NC(=O)c4cc(Cl)cc(Cl)c4)cc3)cc2-c2ccncc2)ccc1Cl
inactive: GI50 (786-0 renal) 1.97 µM | GI50 (PC-3 prostate) 42 µM | GI50 (RXF 393 renal) 2.14 µM | GI50 (K-562 leukemia) 2.91 µM | GI50 (UO-31 renal) 6.86 µM | GI50 (A498 renal) > 100 µM | GI50 (UACC-62 melanoma) 4.58 µM | GI50 (HOP-92 NSCLC) > 100 µM | GI50 (HCT-116 colon) 16.3 µM | GI50 (SN12C renal) > 100 µM | GI50 (SK-OV-3 ovarian) > 100 µM | GI50 (NCI-H226 lung) > 100 µM | GI50 (MDA-MB-231 breast) 9.93 µM | GI50 (OVCAR-5 ovarian) > 100 µM | GI50 (NCI/ADR-RES ovarian) > 100 µM | GI50 (SF-539 CNS) 4.73 µM | GI50 (HOP-62 NSCLC) 32 µM | GI50 (HCC-2998 colon) 5.88 µM | GI50 (KM12 colon) 3.27 µM | GI50 (BT-549 breast) > 100 µM | GI50 (CAKI-1 renal) > 100 µM | GI50 (M14 melanoma) 7.39 µM | GI50 (UACC-257 melanoma) > 100 µM | GI50 (OVCAR-4 ovarian) > 100 µM | GI50 (EKVX NSCLC) > 100 µM | GI50 (SNB-19 CNS) > 100 µM | GI50 (HS 578T breast) 3.29 µM
> 100 µM: TGI (PC-3 prostate) | TGI (RXF 393 renal) | TGI (K-562 leukemia) | TGI (UO-31 renal) | TGI (A498 renal) | TGI (UACC-62 melanoma) | TGI (HOP-92 NSCLC) | TGI (HCT-116 colon) | TGI (SN12C renal) | TGI (SK-OV-3 ovarian) | TGI (NCI-H226 lung) | TGI (MDA-MB-231 breast) | TGI (OVCAR-5 ovarian) | TGI (NCI/ADR-RES ovarian) | TGI (SF-539 CNS) | TGI (HOP-62 NSCLC) | TGI (HCC-2998 colon) | TGI (KM12 colon) | TGI (BT-549 breast) | TGI (CAKI-1 renal) | TGI (M14 melanoma) | TGI (UACC-257 melanoma) | TGI (OVCAR-4 ovarian) | TGI (EKVX NSCLC) | TGI (SNB-19 CNS)
7.66 µM: TGI (786-0 renal)
